{"source": "patent US20190070268A1", "about": "“ABUSE-DETERRENT PHARMACEUTICAL COMPOSITIONS” (priority 2016, published 2019)", "key": {"[1]": {"tested_on": "Humicola insolens cutinase (HiC)", "assay_type": "biochemical"}, "[2]": {"target": "T1, Thermobifida cellulosilytica cutinase 1 (THC) (Thermobifida cellulosilytica, UniProt E9LVH8)", "T1 construct": "made in house", "T1 sequence (E9LVH8 1-262)": "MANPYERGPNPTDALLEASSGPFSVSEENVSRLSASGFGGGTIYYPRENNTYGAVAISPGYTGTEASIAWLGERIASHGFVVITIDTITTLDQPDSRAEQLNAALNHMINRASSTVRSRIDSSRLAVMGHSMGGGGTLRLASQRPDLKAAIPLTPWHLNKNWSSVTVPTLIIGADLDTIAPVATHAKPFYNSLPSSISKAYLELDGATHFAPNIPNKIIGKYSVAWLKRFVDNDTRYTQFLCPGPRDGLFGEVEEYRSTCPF", "assay_type": "biochemical"}, "laccase mediator system [3]": {"tested_on": "laccase mediator system", "assay": "Laccase mediator system and methadone, oxygen measurement", "assay_type": "biochemical", "conditions": "mediator ABTS (best effect)", "experimental": "(§1) During the reaction oxygen acts as electron acceptor and is reduced to water by laccases while the mediators are oxidized. The concentration of oxygen was measured as described above. Oxygen is consumed until the mediator is fully oxidized. […] The second step of the reaction is initiated by addition of the target substrate, which is consequently oxidized by the mediators.\n(§2) In the present experiments the final reaction mixtures contained 0.2 to 6 mM mediator, 1-10 units of laccase per ml and 100-3000 mg L^−1 opioid.\nFor methadone, oxygen measurements were done, but with an extended palette of mediators: In addition to the aforementioned mediators, syringic acid, TEMPO, syringol and ABTS were tested."}, "laccase": {"tested_on": "laccase", "assay": "Thin layer chromatography of enzymatic conversion", "assay_type": "biochemical", "conditions": "samples at 2, 10, 30, 60, 120 minutes"}, "[4]": {"tested_on": "laccase from Myceliophthora thermophila (MtL)", "assay": "Polymerization of morphine with laccase from Myceliophthora thermophila (high concentrations)", "assay_type": "biochemical", "conditions": "MTL 10 U to 100 U, 50 mM sodium phosphate buffer pH 7", "method": "The reactions were carried out in 50 mM sodium phosphate buffer pH 7."}, "[5]": {"tested_on": "laccase from Myceliophthora thermophila (MtL)", "assay": "Oxygen measurement of laccase catalysed oxidation of opioids (MtL)", "assay_type": "biochemical", "conditions": "10 U/ml MtL, 2 mg/ml substrate, distilled water, room temperature", "description": "(§3) Laccases use oxygen as electron acceptor, consequently the oxygen concentration decreases upon substrate oxidation."}, "[6]": {"tested_on": "laccase from Trametes villosa (TvL)", "assay": "Oxygen measurement of laccase catalysed oxidation of opioids (TvL)", "assay_type": "biochemical", "conditions": "10 U/ml TvL, 2 mg/ml substrate, distilled water; for oxygen concentration in solution upon laccase oxidation: room temperature", "description": "as §3"}, "laccase mediator system [7]": {"tested_on": "laccase mediator system", "assay": "Laccase mediator system and oxycodone, oxygen concentration measurement", "assay_type": "biochemical", "conditions": "10 units laccase/ml, 1000 mg/L oxycodone", "experimental": "as §1, §2\nThe different mediators were used at concentrations of 2 mM with 10 units laccase ml^−1 and 1000 mgL^−1 oxycodone."}, "laccase mediator system [8]": {"tested_on": "laccase mediator system", "assay": "Laccase mediator system and oxycodone, HPLC-MS/TOF", "assay_type": "biochemical", "experimental": "The concentrations were determined with a liquid chromatography-electrospray ionization-time of flight (HPLC-ESI-TOF) mass spectrometer from Agilent (A1260 series, Agilent US). The substances contained in the samples were separated by a Zorbax Hilic Plus, 2.1×100 mm, 3.5 μm (Agilent, US) column. The gradient was set to 100% mobile phase A (65 mM ammonium formiate pH 3.2) with a flow rate of 0.4 mL min^−1 at 40° C. and changed to 100% mobile phase B (acetonitrile) in 15 minutes with an injection volume of 1 μL. The spectra were acquired over the m/z range from 100 to 3000 at a scan rate of two spectra per second. The standard curve for each opioid was performed with corresponding standards ranging from 0.001 to 50 mg L^−1.\nIn addition to the reactions shown in FIG. 17, the mediator vanillin was used at a higher concentration (6 mM). The results can be seen in FIG. 18 and FIG. 19. […] One of oxycodone's main degradation products, oxymorphone, was found in all samples. Oxymorphone is an impurity of oxycodone and is therefore present even in the controls where no laccase or mediator were used."}, "pepsin": {"target": "T2, pepsin (Sus scrofa, UniProt P00791)", "T2 construct": "purchased Sigma-Aldrich (US) P7000", "T2 sequence (P00791 60-385)": "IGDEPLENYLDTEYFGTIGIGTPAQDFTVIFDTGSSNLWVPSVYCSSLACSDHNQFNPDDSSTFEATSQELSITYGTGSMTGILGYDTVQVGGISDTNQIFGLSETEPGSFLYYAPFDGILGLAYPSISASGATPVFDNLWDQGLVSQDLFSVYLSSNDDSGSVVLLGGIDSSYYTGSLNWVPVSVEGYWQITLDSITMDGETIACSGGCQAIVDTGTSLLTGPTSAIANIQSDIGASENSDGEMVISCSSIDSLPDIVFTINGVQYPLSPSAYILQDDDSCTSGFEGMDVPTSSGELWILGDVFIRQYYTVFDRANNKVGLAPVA", "assay": "Pepsin digestion assay in simulated gastric fluid with SDS-PAGE", "assay_type": "in vitro ADME", "conditions": "SGF pH 1.2 with pepsin, 37° C.", "experimental": "SGF contains 0.084 M HCl, 0.035 M NaCl, 4000 U of pepsin per reaction mixture and has a pH level of 1.2 according to the United States Pharmacopeia (1995). A ratio of 10000 Units of pepsin activity to 1 mg of test protein was used throughout the assay, which is based on an evaluation of the average activity of pepsin recommended in the United States Pharmacopeia (24th edition, 2000) with some modifications. Pepsin (ref. #P7000) was purchased from Sigma-Aldrich (US). All proteins that were used were dissolved in 50 mM Tris-HCl (pH 9.5) at a concentration of 5 mg mL^−1. The reaction mixture contained 1.52 mL of SGF preheated to 37° C. before the addition of 0.08 mL of protein solution (Thomas et al., 2004). The mixture was placed into a thermomixer at 37° C. and was shaken at 400 rpm. For denaturating SDS-polyacrylamide gel electrophoresis (SDS-PAGE) analysis samples of 160 μl were removed at 0 minutes, 0.5 minutes, and 15 minutes after initiation.\nSDS-PAGE was performed to analyze and visually inspect stained protein bands whether the protein band is still intact or fragmented after the digestion assay. […]\nEach 160 μl of the digestion samples was quenched by adding 56 μl of 200 mM NaHCO3 as neutralization step and 56 μl 4× Laemmli (Laemmli 1970) buffer for electrophoresis. Samples were immediately heated up to 99° C. for 10 minutes and analyzed directly or stored at −20° C. […]"}}, "data": [{"compound": "CC(=O)Oc1ccc2c3c1O[C@H]1[C@@H](OC(C)=O)C=C[C@H]4[C@@H](C2)N(C)CC[C@@]341", "note": "[diacetylmorphine]", "values": [{"measurement": "DAM concentration", "setting": "[1]", "value": "declines"}, {"measurement": "morphine concentration formed from DAM", "setting": "[1]", "value": "increased"}, {"measurement": "diacetylmorphine hydrolyzed (total acetate yield, HPLC/RI)", "setting": "[1]; pH 7", "value": "more than 50%"}, {"measurement": "DAM concentration", "setting": "[2]", "value": "declines"}, {"measurement": "morphine concentration formed from DAM", "setting": "[2]", "value": "increased"}, {"measurement": "diacetylmorphine hydrolyzed (total acetate yield, HPLC/RI)", "setting": "[2]; pH 7", "value": "more than 50%"}]}, {"compound": "CCC(=O)C(CC(C)N(C)C)(c1ccccc1)c1ccccc1", "note": "(stereo not drawn) [methadone]", "values": [{"measurement": "oxygen concentration after addition of the opioid", "setting": "laccase mediator system [3]", "value": "decline in oxygen concentration"}]}, {"compound": "CN1CC[C@]23c4c5ccc(O)c4O[C@H]2[C@@H](O)C=C[C@H]3[C@H]1C5", "note": "[morphine]", "values": [{"measurement": "time at which new dot(s) appear on TLC (new product)", "setting": "laccase", "value": 120, "unit": "s"}, {"measurement": "faster degradation of morphine with 10 times more laccase", "setting": "[4]", "value": "~10", "unit": "times"}]}, {"compound": "COc1ccc2c3c1O[C@H]1C(=O)CC[C@@]4(O)[C@@H](C2)N(C)CC[C@]314", "note": "[oxycodone]", "values": [{"measurement": "oxygen concentration in solution upon laccase oxidation", "setting": "[5]", "value": "not capable of converting oxycodone"}, {"measurement": "oxygen concentration in solution upon laccase oxidation", "setting": "[6]", "value": "not capable of converting oxycodone"}, {"measurement": "oxygen concentration after addition of the opioid", "setting": "laccase mediator system [7]; mediator ethylvanillin 2 mM", "value": "drop in oxygen concentration"}, {"measurement": "oxygen concentration after addition of the opioid", "setting": "laccase mediator system [7]; mediator gallic acid 2 mM", "value": "no apparent effect"}, {"measurement": "oxygen concentration after addition of the opioid", "setting": "laccase mediator system [7]; mediator syringic acid 2 mM", "value": "drop in oxygen concentration"}, {"measurement": "oxygen concentration after addition of the opioid", "setting": "laccase mediator system [7]; mediator vanillin 2 mM", "value": "drop in oxygen concentration"}, {"measurement": "oxycodone concentration (HPLC-MS/TOF)", "setting": "laccase mediator system [8]; laccase mediator system, mediators at 2 mM, vanillin also 6 mM", "value": "decrease in oxycodone concentration was confirmed"}, {"measurement": "effect on oxycodone (MS-TOF analysis)", "setting": "laccase mediator system [8]; mediator gallic acid", "value": "no apparent effect"}, {"measurement": "peak area of oxymorphone (degradation product) by MS-TOF", "setting": "laccase mediator system [8]; oxycodone in combination with the laccase mediator system", "value": "increase in peak area of oxymorphone over time"}]}, {"compound": "CC[C@@H](c1cccc(O)c1)[C@@H](C)CN(C)C", "note": "[tapentadol]", "values": [{"measurement": "oxygen concentration in solution upon laccase oxidation", "setting": "[5]", "value": "much slower"}, {"measurement": "oxygen level to which the curve drops", "setting": "[6]", "value": "~0", "unit": "%"}, {"measurement": "oxygen concentration in solution upon laccase oxidation", "setting": "[6]", "value": "converts tapentadol better"}, {"measurement": "time at which new dot(s) appear on TLC (new product)", "setting": "laccase", "value": 120, "unit": "s"}, {"measurement": "time at which the reference dot disappears on TLC (all converted)", "setting": "laccase", "value": 120, "unit": "min"}]}, {"compound": "HRP: horse radish peroxidase", "values": [{"measurement": "proteolytic degradation (SDS-PAGE)", "setting": "pepsin", "value": "very susceptible to proteolytic degradation"}]}]}
